Literature values in patent US10610595B2, “Stabilized pharmaceutical formulations of insulin analogues and/or insulin derivatives” (SANOFI, priority 2014, dated 2020).

tested on: blood glucose level; conditions: Lill, Pharmazie in unserer Zeit 2001

In the case of human insulin, the “amount corresponding to 1 U” value is listed as “approximately 35 μg”.

same assay, conditions: product information

In order of rising “amount corresponding to 100 U” value:
1. insulin glulisine  3.49 mg
2. insulin aspart  3.5 mg
3. insulin lispro  3.5 mg
4. insulin glargine  3.64 mg
5. insulin detemir [insulin determir]  14.2 mg
